Source: paper PMC9798632, “Tailor-made alkaliphilic and thermostable fungal laccases for industrial wood processing” (Biotechnology for Biofuels and Bioproducts, 2022)

What was measured:
Assay in all cases: spectrophotometric oxidation at […] nm, hyperbolic fit
Format in all cases: biochemical
[1] = molecular target: T1, RY2 laccase (parent of Li9, Li10, Li11, C-LeB, Mol2, Mol3) (basidiomycete PM1, UniProt Q12571, N284D/F475P, form not given); conditions: pH 5, room temperature
T1 construct: one polypeptide; engineered from 7D5 (PDB 6H5Y, used as model template), which came from DNA shuffling of evolved PM1L and P. cinnabarinus laccases; RY2 residues: D263 (from N263), P454, S207, S291, V413, D457, A461, I468; evolved alpha-factor leader a9H2 as signal peptide; host S. cerevisiae BJ5465, purified by HPLC
T1 sequence (Q12571 entry or part of it N284D/F475P, form open): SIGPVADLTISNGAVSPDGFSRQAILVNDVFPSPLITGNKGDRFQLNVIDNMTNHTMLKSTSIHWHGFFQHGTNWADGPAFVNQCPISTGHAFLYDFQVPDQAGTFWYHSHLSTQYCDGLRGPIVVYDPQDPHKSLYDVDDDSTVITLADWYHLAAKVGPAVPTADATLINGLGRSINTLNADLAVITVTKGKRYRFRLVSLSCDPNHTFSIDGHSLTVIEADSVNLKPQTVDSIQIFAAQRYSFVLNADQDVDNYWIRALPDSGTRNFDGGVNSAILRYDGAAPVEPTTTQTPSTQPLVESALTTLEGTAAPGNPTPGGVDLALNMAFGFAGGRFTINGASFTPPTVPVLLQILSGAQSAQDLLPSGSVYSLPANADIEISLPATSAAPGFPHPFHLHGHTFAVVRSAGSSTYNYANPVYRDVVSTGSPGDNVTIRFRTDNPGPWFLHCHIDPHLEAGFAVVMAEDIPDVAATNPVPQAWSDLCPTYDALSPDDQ

[2] = molecular target: T2, RY2 laccase (parent of Li9, Li10, Li11, C-LeB, Mol2, Mol3) (basidiomycete PM1, UniProt Q12571, N284D/F413N/F417I/F475P/F481M, form not given); conditions: 100 mM Tris-HCl pH 8, room temperature
T2 construct: one polypeptide; engineered from 7D5 (PDB 6H5Y, used as model template), which came from DNA shuffling of evolved PM1L and P. cinnabarinus laccases; RY2 residues: D263 (from N263), P454, S207, S291, V413, D457, A461, I468; evolved alpha-factor leader a9H2 as signal peptide; host S. cerevisiae BJ5465, purified by HPLC
T2 sequence (Q12571 entry or part of it N284D/F413N/F417I/F475P/F481M, form open): as the sequence (Q12571 entry or part of it N284D/F475P, form open) above, with F392N, F396I, F460M counted along it

[3] = molecular target: T3, RY2 laccase (parent of Li9, Li10, Li11, C-LeB, Mol2, Mol3) (basidiomycete PM1, UniProt Q12571, N284V/F413N/F417I/V445T/S450T/D462N/F475P/A479L/F481M, form not given); conditions: 100 mM Tris-HCl pH 8, room temperature
T3 construct: one polypeptide; engineered from 7D5 (PDB 6H5Y, used as model template), which came from DNA shuffling of evolved PM1L and P. cinnabarinus laccases; RY2 residues: D263 (from N263), P454, S207, S291, V413, D457, A461, I468; evolved alpha-factor leader a9H2 as signal peptide; host S. cerevisiae BJ5465, purified by HPLC
T3 sequence (Q12571 entry or part of it N284V/F413N/F417I/V445T/S450T/D462N/F475P/A479L/F481M, form open): as the sequence (Q12571 entry or part of it N284D/F475P, form open) above, with D263V, F392N, F396I, V424T, S429T, D441N, A458L, F460M counted along it

[4] = molecular target: T4, RY2 laccase (parent of Li9, Li10, Li11, C-LeB, Mol2, Mol3) (basidiomycete PM1, UniProt Q12571, N284V/F413N/F417I/F475P/A479L/F481M, form not given); conditions: 100 mM Tris-HCl pH 8, room temperature
T4 construct: one polypeptide; engineered from 7D5 (PDB 6H5Y, used as model template), which came from DNA shuffling of evolved PM1L and P. cinnabarinus laccases; RY2 residues: D263 (from N263), P454, S207, S291, V413, D457, A461, I468; evolved alpha-factor leader a9H2 as signal peptide; host S. cerevisiae BJ5465, purified by HPLC
T4 sequence (Q12571 entry or part of it N284V/F413N/F417I/F475P/A479L/F481M, form open): as the sequence (Q12571 entry or part of it N284D/F475P, form open) above, with D263V, F392N, F396I, A458L, F460M counted along it

[5] = molecular target: T5, RY2 laccase (parent of Li9, Li10, Li11, C-LeB, Mol2, Mol3) (basidiomycete PM1, UniProt Q12571, N284V/F413N/F417I/F475P/F481M, form not given); conditions: 100 mM Tris-HCl pH 8, room temperature
T5 construct: one polypeptide; engineered from 7D5 (PDB 6H5Y, used as model template), which came from DNA shuffling of evolved PM1L and P. cinnabarinus laccases; RY2 residues: D263 (from N263), P454, S207, S291, V413, D457, A461, I468; evolved alpha-factor leader a9H2 as signal peptide; host S. cerevisiae BJ5465, purified by HPLC
T5 sequence (Q12571 entry or part of it N284V/F413N/F417I/F475P/F481M, form open): as the sequence (Q12571 entry or part of it N284D/F475P, form open) above, with D263V, F392N, F396I, F460M counted along it

Km [1]: 260 ± 40 µM | Km [2]: 20000 ± 2400 µM | Km [3]: 1700 ± 200 µM | Km [4]: 1700 ± 100 µM | Km [5]: 1500 ± 100 µM
Structure (SMILES): COc1cccc(OC)c1O [2,6-dimethoxyphenol]
